The values below come from patent publication US11072607B2, “Inhibitors of RIP1 kinase and methods of use thereof” (priority 2016, dated 2021).

Each structure is given as a SMILES string.

Sequence of human RIP1 kinase domain (2-375) (Q13546 2-375): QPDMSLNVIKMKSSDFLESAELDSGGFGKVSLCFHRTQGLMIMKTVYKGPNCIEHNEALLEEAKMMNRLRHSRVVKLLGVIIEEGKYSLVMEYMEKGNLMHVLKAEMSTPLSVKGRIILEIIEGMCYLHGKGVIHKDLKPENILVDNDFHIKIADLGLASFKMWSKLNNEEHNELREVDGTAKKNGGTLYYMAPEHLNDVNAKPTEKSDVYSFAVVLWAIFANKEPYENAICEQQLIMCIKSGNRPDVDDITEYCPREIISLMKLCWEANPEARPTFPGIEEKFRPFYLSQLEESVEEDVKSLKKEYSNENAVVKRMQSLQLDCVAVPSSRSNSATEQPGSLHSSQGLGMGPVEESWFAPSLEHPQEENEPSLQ

The first assay concerns the target human RIP1 kinase domain (2-375) (Homo sapiens (Human), UniProt Q13546). Put plainly: RIP1 kinase inhibition assay (biochemical, Transcreener ADP assay). The note with it: RIP1 Ki, tight-binding apparent inhibition constant (Ki app, Morrison equation); 50 nM enzyme, 50 uM ATP, 2 hours incubation, fluorescence polarization. How it is done: Example 45: RIP1 Kinase Inhibition Assays (Biochemical Assay)
The compounds of the present invention were tested for their capacity to inhibit RIP1K activity as described below.
The ability of the receptor interacting protein kinase (RIPK1) to catalyze the hydrolysis of adenosine-5′-triphosphate (ATP) is monitored using the Transcreener ADP (adenosine-5′-diphosphate) assay (BellBrook Labs). Purified human RIP1 kinase domain (2-375) (50 nM) derived from a baculovirus-infected insect cell expression system is incubated with test compounds for 2 hours in 50 mM Hepes buffer (pH 7.5) containing 30 mM MgCl2, 1 mM dithiothreitol, 50 uM ATP, 0.002% Brij-35, and 0.5% dimethyl sulfoxide (DMSO). Reactions are quenched by the addition of 1× Bell Brooks Stop buffer B (20 mM Hepes (ph 7.5), 40 mM ethylenediaminetetraacetic acid and 0.02% Brij-35) containing an additional 12 mM EDTA and 55 ug/mL ADP2 antibody and 4 nM ADP-AlexaFluor® 633 tracer. The tracer bound to the antibody is displaced by the ADP generated during the RIP1K reaction, which causes a decrease in fluorescence polarization that is measured by laser excitation at 633 nm with a FP microplate reader M1000. Fractional activity was plotted against test article concentration. Using Genedata Screener software (Genedata; Basel, Switzerland), the data were fit to the tight-binding apparent inhibition constant (Ki^app) Morrison equation [Williams, J. W. and Morrison, J. F. (1979) The kinetics of reversible tight-binding inhibition. Methods Enzymol 63: 437-67]. The following equation was used to calculate fractional activity and Ki^app: […]
where [E]T and [I]T are the total concentrations of active enzyme and test article, respectively. […]
Background: Fluorescence polarisation rises when a labelled molecule tumbles more slowly, as on binding a larger partner.
Turning to `CN1C(=O)[C@@H](NC(=O)c2nc3n(n2)[C@@H](c2ccccc2)CC3(F)F)CCn2nccc21` (racemic) [Example #43, rac-(5R)-7,7-difluoro-5-phenyl-N-[rac-(6S)-4-methyl-5-oxo-7,8-dihydro-6H-pyrazolo[1,5-a][1,3]diazepin-6-yl]-5,6-dihydropyrrolo[1,2-b][1,2,4]triazole-2-carboxamide], the Ki amounted to 0.028 µM.
The same measure, in the same setting: the same measure for `CN1C(=O)[C@@H](NC(=O)c2nc3n(n2)[C@H](c2ccccc2)C[C@@H]3F)CCn2nccc21` (mixture of isomers) [Example #29, Rac-(5S,7S)-7-fluoro-5-phenyl-N-[(6S)-4-methyl-5-oxo-7,8-dihydro-6H-pyrazolo[1,5-a][1,3]diazepin-6-yl]-6,7-dihydro-5H-pyrrolo[1,2-b][1,2,4]triazole-2-carboxamide]: 0.043 µM.
Same read-out and setting: the figure for `Cc1cc2n(n1)CC[C@H](NC(=O)c1nc3n(n1)[C@H](c1ccccc1)C[C@@H]3F)C(=O)N2C` (racemic) [Example #39, rac-(5S,7S)-7-fluoro-5-phenyl-N-[rac-(6S)-2,4-dimethyl-5-oxo-7,8-dihydro-6H-pyrazolo[1,5-a][1,3]diazepin-6-yl]-6,7-dihydro-5H-pyrrolo[1,2-b][1,2,4]triazole-2-carboxamide] is 0.027 µM.
Same read-out and setting: the figure for `Cc1cc2n(n1)CC[C@H](NC(=O)c1nc3n(n1)[C@@H](c1ccccc1)CC3(F)F)C(=O)N2C` (racemic) [Example #41, rac-(5R)-7,7-difluoro-5-phenyl-N-[rac-(6S)-2,4-dimethyl-5-oxo-7,8-dihydro-6H-pyrazolo[1,5-a][1,3]diazepin-6-yl]-5,6-dihydropyrrolo[1,2-b][1,2,4]triazole-2-carboxamide] is 0.035 µM; for `CN1C(=O)[C@@H](NC(=O)c2nc3n(n2)[C@@H](c2ccccc2)CC3(F)F)COc2ccccc21` (racemic) [Example #42, rac-(5R)-7,7-difluoro-5-phenyl-N-[rac-(3S)-5-methyl-4-oxo-2,3-dihydro-1,5-benzoxazepin-3-yl]-5,6-dihydropyrrolo[1,2-b][1,2,4]triazole-2-carboxamide] it is 0.005 µM.
`CN1C(=O)[C@@H](NC(=O)c2nc3n(n2)[C@H](c2ccccc2)C[C@@H]3F)COc2ccccc21` (single isomer, unassigned) [Example #40]: the Ki was 0.005 µM.
Regarding `CN1C(=O)[C@@H](NC(=O)c2nc3n(n2)[C@H](c2ccccc2)C[C@@H]3F)CCn2nccc21` (racemic) [Example #38, rac-(5S,7S)-7-fluoro-5-phenyl-N-[rac-(6S)-4-methyl-5-oxo-7,8-dihydro-6H-pyrazolo[1,5-a][1,3]diazepin-6-yl]-6,7-dihydro-5H-pyrrolo[1,2-b][1,2,4]triazole-2-carboxamide], the Ki came out at 0.024 µM.

Still in this assay, the particulars now being: tight-binding apparent inhibition constant (Ki app, Morrison equation); 50 nM enzyme, 50 uM ATP, 2 hours incubation, fluorescence polarization; read-out: RIP1 Ki.
`CN1C(=O)[C@@H](NC(=O)c2nc3n(n2)[C@@H](c2ccccc2)C[C@@H]3F)CCn2nccc21` (single isomer, unassigned) [Example #36]: the Ki amounted to 0.032 µM.
With `CCC(F)(F)[C@@H]1CCc2nc(C(=O)N[C@H]3COc4ccccc4N(C)C3=O)nn21` (single isomer, unassigned) [Example #44], the Ki was 0.007 µM.
On the same count and under the same terms, the figure for `O=C(N[C@H]1CCc2ncccc2NC1=O)c1nc2n(n1)[C@@H](c1ccccc1)CC2` (single isomer, unassigned) [Example #13] is 0.041 µM; for `CN1C(=O)[C@@H](NC(=O)c2nc3n(n2)[C@H](c2ccccc2)C[C@H]3F)COc2ccccc21` (single isomer, unassigned) [Example #35] it is 0.015 µM; for `COc1cc2c(cn1)N(C)C(=O)[C@@H](NC(=O)c1nc3n(n1)[C@H](c1ccccc1F)CC3)CC2` (single isomer, unassigned) [Example #11] it is 0.011 µM.
On the same count and under the same terms, the figure for `CN1C(=O)[C@@H](NC(=O)c2nc3n(n2)CC[C@H]3c2ccccc2F)CCn2nccc21` (single isomer, unassigned) [Example #7] is 0.022 µM; for `CN1C(=O)[C@@H](NC(=O)c2ncc3cnn(C4CC4)c3n2)COc2ccccc21` [Example #4, 1-cyclopropyl-N-[(3S)-5-methyl-4-oxo-2,3-dihydro-1,5-benzoxazepin-3-yl]pyrazolo[3,4-d]pyrimidine-6-carboxamide] it is 0.022 µM.
For `Cc1cc2n(n1)CC[C@H](NC(=O)c1nc3n(n1)[C@@H](c1ccccc1)C[C@@H]3F)C(=O)N2C` (single isomer, unassigned) [Example #37], the Ki is 0.03 µM.
On the same count and under the same terms, the figure for `O=C(N[C@H]1CCc2cc(F)cc(F)c2NC1=O)c1nc2n(n1)C(c1ccccc1)CC2F` (stereo partly drawn) [Example #27, 7-fluoro-5-phenyl-N-[(3S)-7,9-difluoro-2-oxo-1,3,4,5-tetrahydro-1-benzazepin-3-yl]-6,7-dihydro-5H-pyrrolo[1,2-b][1,2,4]triazole-2-carboxamide] is 0.014 µM.
On the same count and under the same terms, the figure for `O=C(N[C@H]1CCc2cc(F)cc(F)c2NC1=O)c1nc2n(n1)[C@@H](c1ccccc1)C[C@H]2F` (single isomer, unassigned) [Example #33] is 0.013 µM; for `CN1C(=O)[C@@H](NC(=O)c2nc3n(n2)CC[C@H]3c2ccccc2F)CCc2ncccc21` (single isomer, unassigned) [Example #15] it is 0.042 µM; for `CN1C(=O)[C@@H](NC(=O)c2ncn(Cc3ccccc3F)n2)CCc2nn(C)cc21` (single isomer, unassigned) [Example #21] it is 0.026 µM.
On the same count and under the same terms, the same measure for `CN1C(=O)[C@@H](NC(=O)c2nc3n(n2)CC[C@H]3c2ccccc2)CCc2ncccc21` (single isomer, unassigned) [Example #17]: 0.037 µM; for `O=C(N[C@H]1CCc2cc(F)cc(F)c2NC1=O)c1nc2n(n1)[C@H](c1ccccc1)C[C@H]2F` (single isomer, unassigned) [Example #34]: 0.031 µM; for `CN1C(=O)[C@@H](NC(=O)c2ncn(Cc3ccccc3)n2)CCc2c1cnn2C` (single isomer, unassigned) [Example #22]: 0.014 µM.
With `CN1C(=O)[C@@H](NC(=O)c2ncn(Cc3ccccc3)n2)CCc2nn(C)cc21` (single isomer, unassigned) [Example #20], the Ki was 0.046 µM.
Same read-out and setting: the figure for `CN1C(=O)[C@@H](NC(=O)c2cc3c(cn2)cnn3CC(C)(F)F)COc2ccccc21` [Example #2, 1-(2,2-difluoropropyl)-N-[(3S)-5-methyl-4-oxo-2,3-dihydro-1,5-benzoxazepin-3-yl]pyrazolo[4,3-c]pyridine-6-carboxamide] is 0.029 µM.
In the case of `O=C(N[C@H]1CCc2ncccc2NC1=O)c1nc2n(n1)[C@H](c1ccccc1F)CC2` (single isomer, unassigned) [Example #14], the Ki came to 0.019 µM.
For the compound `CN1C(=O)[C@@H](NC(=O)c2ncn(Cc3ccccc3F)n2)CCc2c1cnn2C` (single isomer, unassigned) [Example #23], the Ki is 0.013 µM.
